US20260224609A1, “TREATMENT OF GUT INFLAMMATORY DISEASES” (priority 2023, published 2026)

Key:
ileo-cecal lesions = assay: IBD model: ileo-cecal resection in transgenic HLA-B27 rats; format: in vivo; settings: 6 weeks after resection; treatment from week 8
Procedure: Transgenic HLA-B27 rats have been selected by the inventors as a model for ileo-cecal lesions in Humans (for instance common in Crohn's disease).
Twelve weeks-old rats (40, in five pools) are treated for the resection of distal ileum with proximal colon and the inflammation level was evaluated 6 weeks thereafter.

Candida albicans = assay: Candida albicans-induced colitis model; format: in vivo, Balb/C female mice; settings: after 9 days; 150 mg/kg, curative
Procedure: The inventors have selected a group of Balb/C female mice under estradiol (2.5 mg/kg; 1 injection every 3 days, for 12 days) to develop a Candida albicans-induced colitis model.
The prevention treatment started during estradiol administration, whereas the curative treatments started 2 days after Candida inoculation. The mice were sacrificed 14 days after the inoculation.

Caco-2 cells = assay: Toxicity test CCK-8 on Caco-2 cells; settings: inflammatory conditions, LPS 1 mg/ml
Description: (§1) A cellular model with HT-29 and Caco-2 cells has been established.

HT-29 = assay: Toxicity test CCK-8 on HT-29 cells under LPS; settings: inflammatory conditions, LPS 10 ng/ml
Description: as §1

[1] = tested on: 2,4,6-trinitrobenzene sulfonic acid (TNBS)-induced colitis; assay: TNBS-induced colitis in rats; format: in vivo, rats (Sprague Dauwley)
Procedure: The inventors have developed a model based on 2,4,6-trinitrobenzene sulfonic acid (TNBS)-induced colitis in rats (Sprague Dauwley); 80 mg/kg. Colorectal distension is measured 14 days prior to the TNBS induction, as well as 21, 35 and 49 days after the TNBS induction.
The bacteria B. breve and La have been formulated in sticks for ingestion; the stability having been validated.

SMILES: Nc1ccc(O)c(C(=O)O)c1 [pentasa]
- post-operative relapses (ileo-cecal lesions): markedly reduced

SMILES: OC(Cn1cncn1)(Cn1cncn1)c1ccc(F)cc1F [Fluconazole]
- mice remaining infected (Candida albicans): no mice remaining infected

SMILES: C=C1CC[C@H](O)C/C1=C/C=C1\CCC[C@]2(C)[C@@H]([C@H](C)CCCC(C)C)CC[C@@H]12 [Vitamin D, cholecalciferol (Vitamin D3)]
- toxicity (CCK-8) (Caco-2 cells): no toxicity
- toxicity (CCK-8) (HT-29): no toxicity

SMILES: Oc1cc(O)cc(O)c1 [Spasfon, Phloroglucinol]
- macroscopic evaluation (Wallace scoring) ([1]; TNBS condition: 2.25): 1.56
- histological analysis of the inflammation (Ameho) ([1]; TNBS+vehicle: 2.00): 1.56
- pain threshold ([1]; also with Vitamin D): did not increase the pain threshold
